Measurements reported in US20150368248A1, “2-SUBSTITUTED-6-BIARYLMETHYLAMINO-9-CYCLOPENTYL-9H-PURINE DERIVATIVES, USE THEREOF AS MEDICAMENTS, AND PHARMACEUTICAL COMPOSITIONS” (UNIVERZITA PALACKEHO V OLOMOUCI, priority 2013, published 2015).

Key:
HUH-7 = assay: MTT cytotoxicity assay (Example 30); type: cell-based; conditions: Homo sapiens, Huh-7, 72 h; MTT, three days after drug addition; read-out: Inhibitory concentration IC50, HUH-7
PLC/PRF/5 = assay: MTT cytotoxicity assay (Example 30); type: cell-based; conditions: Homo sapiens, PLC-PRF-5, 72 h; MTT, three days after drug addition; read-out: Inhibitory concentration IC50, PLC/PRF/5
HCC-1.2 (3p) = assay: MTT cytotoxicity assay (Example 30); type: cell-based; conditions: Homo sapiens, HCC-1.2, 72 h; MTT, three days after drug addition; read-out: Inhibitory concentration IC50, 3p
HCC-1.1 (3sp) = assay: MTT cytotoxicity assay (Example 30); type: cell-based; conditions: Homo sapiens, 72 h; MTT, three days after drug addition; read-out: Inhibitory concentration IC50, 3sp
[1] = test system: caspase-3/7 activity in Hep3B cell line; assay: One-step cellular caspase-3/7 activity assay; type: cell-based, human; conditions: 24 hours, 0 nM = 1.00
How it was run: (§1)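 Hep3B or PLC/PRF/5 cells, plated overnight, were exposed to compounds for 24 h. Lysis buffer containing 150 μM Ac-DEVD-AMC substrate was added, and plates were incubated at 37° C. Caspase-3/7 activity was read as AMC fluorescence (ex 346/em 442 nm) after 6 h.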

[2] = test system: caspase-3/7 activity in PLC/PRF/5 cell line; assay: One-step cellular caspase-3/7 activity assay; type: cell-based, human; conditions: 24 hours incubation, relative to 0 nM = 1.00
How it was run: as §1

CDK1/cyclin B = target: T1, CDK1/cyclin B (Homo sapiens, UniProt P06493); assay: Kinase inhibition assay, recombinant kinase, [γ-33P]ATP; type: biochemical; conditions: read-out: Kinase inhibition IC50, CDK1
T1 construct: made in house; host or cells: Sf9 insect cells (baculovirus)
T1 sequence (P06493 whole entry, species assumed): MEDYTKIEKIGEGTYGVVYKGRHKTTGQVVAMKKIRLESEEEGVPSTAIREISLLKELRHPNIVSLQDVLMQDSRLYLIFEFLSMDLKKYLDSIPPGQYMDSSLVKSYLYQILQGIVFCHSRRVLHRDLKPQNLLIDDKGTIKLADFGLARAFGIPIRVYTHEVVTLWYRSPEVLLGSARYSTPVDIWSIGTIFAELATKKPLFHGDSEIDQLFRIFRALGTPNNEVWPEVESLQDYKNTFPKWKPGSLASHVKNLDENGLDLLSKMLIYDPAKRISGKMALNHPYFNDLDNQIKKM
T1 sequence (P14635 whole entry partner, species assumed): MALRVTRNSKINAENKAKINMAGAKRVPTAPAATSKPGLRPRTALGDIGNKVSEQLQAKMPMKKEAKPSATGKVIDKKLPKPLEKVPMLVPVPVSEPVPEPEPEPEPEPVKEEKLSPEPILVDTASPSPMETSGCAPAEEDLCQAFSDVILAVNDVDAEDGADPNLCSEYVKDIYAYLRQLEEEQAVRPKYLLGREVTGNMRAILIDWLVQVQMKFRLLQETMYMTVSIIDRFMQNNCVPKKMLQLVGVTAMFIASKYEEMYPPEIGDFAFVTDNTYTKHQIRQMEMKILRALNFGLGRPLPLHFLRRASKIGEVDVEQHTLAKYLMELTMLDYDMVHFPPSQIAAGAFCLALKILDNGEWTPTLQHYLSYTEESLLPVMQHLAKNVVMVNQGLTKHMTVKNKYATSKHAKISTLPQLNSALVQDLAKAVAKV
Description: CDK2/Cyclin E kinase was produced in Sf9 insect cells via baculoviral infection and purified on a NiNTA column (Qiagen). CDK5/p35, CDK7Cyclin H/MAT1 and CDK9/Cyclin T1 was purchased from ProQinase GmbH. […] The reactions were stopped by adding 5 μL of 3% aq H3PO4. Aliquots were spotted onto P-81 phosphocellulose (Whatman), washed 3× with 0.5% aq H3PO4 and finally air-dried.
CDK1/cyclin B and CDK2/cyclin E kinases were produced in Sf9 insect cells via baculoviral infection, while CDK5/p35, CDK7/cyclin H/MAT1, and CDK9/cyclin T1 were purchased from ProQinase (Freiburg, Germany) and assayed as described previously (35). The kinase reactions were assayed with 1 mg/ml histone H1 (for CDK2 and CDK5) or (YSPTSPS)2KK peptide (for CDK7 and CDK9) in the presence of 15/0.15/1.5/1.5 […] ATP (for CDK2/CDK5/CDK7CDK9), […] [γ-^33P]ATP and of the test compound in a final volume of […]. The reaction buffer contained 60 mM HEPES-NaOH, pH 7.5, 3 mM MgCl2, 3 mM MnCl2, 3 mM Na-orthovanadate, 1.2 mM DTT, 2.5 mg/50 ml PEG20.000. The reactions were stopped by adding […] of 3% H3PO4. Aliquots were spotted onto P-81 phosphocellulose (Whatman, GE Healthcare Biosciences, Pittsburgh, USA), washed 3 times with 0.5% H3PO4 and finally air-dried. Kinase inhibition was quantified using a FLA-7000 digital image analyzer (Fujifilm, Tokyo, Japan).

[3] = test system: p53-regulated transcription in Arn8 cells; assay: p53-dependent transcriptional activity, β-galactosidase reporter; type: cell-based; conditions: 24 h incubation
How it was run: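 Arn8 melanoma cells stably carrying the p53-responsive pRGCAfoslacZ reporter, exposed to compounds for 24 h. Cells permeabilised with 0.3% Triton X-100 for 15 min, then given 80 μM 4-methylumbelliferyl-β-D-galactopyranoside. β-Galactosidase product fluorescence read after 1 h at 355/460 nm.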

| Structure (SMILES) | IC50 (HUH-7) [nM] | IC50 (PLC/PRF/5) [nM] | IC50 (HCC-1.2 (3p)) [nM] | IC50 (HCC-1.1 (3sp)) [nM] | melting point [°C] | Relative caspase-3/7 activity in Hep3B cell line ([1]; 200 nM) | Relative caspase-3/7 activity in Hep3B cell line ([1]; 400 nM) | Relative caspase-3/7 activity in Hep3B cell line ([1]; 800 nM) | Relative caspase-3/7 activity in Hep3B cell line ([1]; 1600 nM) | Relative caspase-3/7 activity in PLC/PRF/5 cell line ([2]; compound concentration 40 nM) | Relative caspase-3/7 activity in PLC/PRF/5 cell line ([2]; compound concentration 80 nM) | Relative caspase-3/7 activity in PLC/PRF/5 cell line ([2]; compound concentration 160 nM) | Relative caspase-3/7 activity in PLC/PRF/5 cell line ([2]; compound concentration 320 nM) | Relative caspase-3/7 activity in PLC/PRF/5 cell line ([2]; compound concentration 640 nM) | Relative caspase-3/7 activity in PLC/PRF/5 cell line ([2]; compound concentration 1280 nM) | IC50 (CDK1/cyclin B) [nM] | Concentration of maximum activation [3] [nM] | Relative caspase-3/7 activity in Hep3B cell line ([1]; 100 nM) |
| --- | --- | --- | --- | --- | --- | --- | --- | --- | --- | --- | --- | --- | --- | --- | --- | --- | --- | --- |
| OC1CCC(Nc2nc(NCc3ccc(-c4ccco4)nc3)c3ncn(C4CCCC4)c3n2)CC1 (stereo not drawn) [BP21, 4-{9-cyclopentyl-6-[(6-furan-2-yl-pyridin-3-ylmethyl)-amino]-9H-purine-2-ylamino}-cyklohexanol] | 155 | 46 | 167 | 408 | 164 to 166 | 1.15 | 1.18 | 4.36 | 7.19 | 0.69 | 1.20 | 2.19 | 3.39 | >5.00 | >5.00 | 215 | 918 |  |
| Nc1ccccc1-c1ccc(CNc2nc(NC3CCC(N)CC3)nc3c2ncn3C2CCCC2)cn1 (stereo not drawn) [BP22, N^2-(4-amino-cyclohexyl)-9-cyclopentyl-N^6-[6-(2-amino-phenyl)-pyridin-3-ylmethyl]-9H-purine-2,6-diamine] | 642 | 280 | 436 | 516 | 173 to 175 | 0.81 | 0.80 | 0.81 | 1.18 |  |  | 0.72 | 1.08 | 1.92 | 3.50 | 100 | 373 |  |
| NC1CCC(Nc2nc(NCc3ccc(-n4cccn4)cc3)c3ncn(C4CCCC4)c3n2)CC1 (stereo not drawn) [BP24, N^2-(4-amino-cyclohexyl)-9-cyclopentyl-N^6-(4-pyrazol-1-yl-benzyl)-9H-purine-2,6-diamine] | 177 | 12 | 169 | 339 | 186 to 187 | 6.18 | 6.81 | 9.80 | 9.65 | 2.01 | 2.59 | >5.00 | >5.00 | >5.00 | >5.00 | 58 | 260 | 1.98 |
| NC1CCC(Nc2nc(NCc3ccc(-c4cccs4)nc3)c3ncn(C4CCCC4)c3n2)CC1 (stereo not drawn) [BP30, N^2-(4-amino-cyclohexyl)-9-cyclopentyl-N^6-(6-thiophen-2-yl-pyridin-3-ylmethyl)-9H-purine-2,6-diamine] | 184 | 15 | 205 | 476 | 151 to 153 | 5.32 | 8.08 | 9.00 | 9.43 | 2.46 | 3.93 | >5.00 | >5.00 | >5.00 | >5.00 | 49 | 120 | 2.99 |
| Nc1ccccc1-c1ccc(CNc2nc(NC3CCC(N)CC3)nc3c2ncn3C2CCCC2)cc1 (stereo not drawn) [BP32, N^2-(4-amino-cyclohexyl)-9-cyclopentyl-N^6-(2′-amino-biphenyl-4-ylmethyl)-9H-purine-2,6-diamine] | 647 | 122 | 543 | 687 | 168 to 170 | 0.70 | 1.15 | 2.48 | 7.53 | 0.62 | 1.00 | 0.69 | 2.01 | >5.00 | >5.00 | 152 | 895 |  |
| NC1CCC(Nc2nc(NCc3ccc(-c4ccsc4)nc3)c3ncn(C4CCCC4)c3n2)CC1 (stereo not drawn) [BP35, N^2-(4-amino-cyclohexyl)-9-cyclopentyl-N^6-(6-thiophen-3-yl-pyridin-3-ylmethyl)-9H-purine-2,6-diamine] | 257 | 37 | 218 | 328 | 139 to 140 | 1.01 | 5.59 | 6.07 | 9.10 | 1.10 | 2.37 | 2.97 | >5.00 | >5.00 | >5.00 | 169 | 230 |  |
